Test results taken from patent US20240399118A1, “INTRALUMINAL LOCAL DRUG DELIVERY” (Isola Therapeutics, Inc., priority 2023, published 2024).
Where two headings read alike, the source gives them in different places.

Experiments:
porcine model = conditions: pig, in vivo
Method: Animals tested were of the porcine species from the breed Yorkshire Cross. The animals underwent surgery to place two (2) CVL catheters, 1 for infusion and 1 for plasma collection. Each animal received ˜1 L of lavage solution. The animals were allowed to recover and stabilize. Once the animals were awake and mobile, the animals were infused with 50 mcg/mL for 30 minutes.

[1] = cited from earlier work
[2] = Plasma concentration of diclofenac after local lavage delivery to the lungs in a porcine model (LC/MS); type: in vivo, porcine (Yorkshire Cross)
From the text: Each animal received ˜1 L of lavage solution. The animals were allowed to recover and stabilize. […] Spectra were compared to the validated protocol and standard curve generated for the study.

C[C@@H]1C[C@H]2[C@@H]3CCC4=CC(=O)C=C[C@]4(C)[C@@]3(F)[C@@H](O)C[C@]2(C)[C@@]1(O)C(=O)COP(=O)([O-])[O-].[Na+].[Na+] [Dexamethasone sodium phosphate, disodium; [2-[(8S,9R,10S,11S,13S,14S,16R, 17R)-9-fluoro-11,17-dihydroxy-10,13,16-trimethyl-3-oxo-6,7,8, 11, 12, 14, 15, 16-octahydrocyclopenta[a]phenanthren-17-yl]-2-oxoethyl] phosphate]
tolerability (porcine model): well tolerated
solubility in water ([1]; water): 100 to 1000 mg/mL
solubility in water (in words) ([1]; water): freely soluble

O=C(O)Cc1ccccc1Nc1c(Cl)cccc1Cl [Diclofenac sodium]
solubility in water (in words) ([1]; water at 25° C.): sparingly soluble

O=C(O)Cc1ccccc1Nc1c(Cl)cccc1Cl [Diclofenac, 2-[2-(2,6-dichloroanilino)phenyl]acetic acid]
time of peak plasma concentration post-lung infusion ([2]; local lung delivery at 50 mcg/mL): 5 min
plasma Cmax as percent of the plasma Cmax resulting from systemic administration ([2]; local vs systemic administration): less than 0.05%
Plasma Concentration (ng/mL) by Time (min): 5 min ([2]; swine, local lung administration 50 mcg/mL, 5 min, animal 24P0133): 3430 ng/mL
Plasma Concentration (ng/mL) by Time (min): 15 min ([2]; swine, local lung administration 50 mcg/mL, 15 min, animal 24P0133): 3050 ng/mL
Plasma Concentration (ng/mL) by Time (min): 30 min ([2]; swine, local lung administration 50 mcg/mL, 30 min, animal 24P0133): 2410 ng/mL
Plasma Concentration (ng/mL) by Time (min): 0 min ([2]; swine, local lung administration 50 mcg/mL, ~1 L lavage solution, 0 min (baseline), animal 24P0133): BLQ
adverse events (porcine model): did not have any adverse events
clinical observations (porcine model): no abnormal clinical observations
lung tissue damage (porcine model): no signs of lung tissue damage
